Experimental data taken from patent US20230142366A1, “NOVEL POLYMORPHIC FORMS OF METOPIMAZINE” (Neurogastrx, Inc., priority 2020, published 2023).
Where a name gives a salt, the structure may show the parent alone. Marks after values point to notes of the source that are not given here.

Tests used:
[1] = before and after a high fat breakfast; cited from earlier work
[2] = Clinical comparative pharmacokinetic study, 3-period cross-over, single oral doses, plasma samples; type: in vivo, human
Description: A clinical comparative pharmacokinetic study was performed to understand the pharmacokinetic profile of metopimazine mesylate Crystal Form A in comparison to the free base of metopimazine. This study was as a 3-period, cross-over design with 3 administrations of single doses: oral formulation of metopimazine mesylate Crystal Form A fasting, oral formulation of metopimazine mesylate Crystal Form A after a high-fat breakfast, and oral formulation of metopimazine free base fasting, with a wash-out period of 48 hours between each administration. Fifteen subjects were enrolled and received each of the 3 treatment. Plasma samples from each subject were analyzed for various pharmacokinetic parameters. Mixed model repeated measures (MMRM) analysis was performed on each sample.
The second objective of this study was to compare the pharmacokinetics of metopimazine mesylate Crystal Form A administered as an oral administration of a single dose of 15 mg orally in 15 human subjects either in a fasted state or after a high fat breakfast. Plasma samples from each subject were analyzed for various pharmacokinetic parameters. […] Both Cmax and AUC are well within the 90% confidence interval.

[3] = 15 mg single oral dose, n = 15, fasted
[4] = 90% confidence interval of ratio fasted vs fed
[5] = 90% confidence interval of ratio fasted vs fed, marked bioequivalence
[6] = single dose of 15 mg orally, 15 human subjects

Row | Tmax CV % [2, 3] [%] | Tmax Max [2, 3] [h] | Tmax Median [2, 3] [h] | Tmax Min [2, 3] [h] | Tmax Mean ([2]; 15 mg single oral dose, n = 15, fasted, plasma) [h] | Change in AUC when administered with food ([2]; 15 mg oral, fed vs fasted) | Reduction in Cmax when administered with food ([2]; 15 mg oral, fed vs fasted) | AUC0-inf GLSM Ratio fasted vs fed (%) ([2]; 15 mg, n = 15) | Cmax GLSM Ratio fasted vs fed (%) ([2]; 15 mg, n = 15) | Cmax ratio Lower CI % [2, 4] [%] | Cmax ratio Upper CI % [2, 4] [%] | AUC0-inf ratio Lower CI % [2, 5] | AUC0-inf ratio Upper CI % [2, 5] | Geometric mean difference in AUC, high fat breakfast vs fasted [2, 6] | Geometric mean difference in Cmax, high fat breakfast vs fasted [2, 6] | Compound | Reduction in AUC (food effect) [1] [%] | Reduction in Cmax (food effect) [1] [%] | Variance of Tmax values compared with metopimazine free base ([2]; 15 mg oral, fasted, MMRM analysis)
1 | 77.33 | 4.00 | 1.00 | 0.50 | 1.27 | – | – | – | – | – | – | – | – | – | – | CS(=O)(=O)c1ccc2c(c1)N(CCCN1CCC(C(N)=O)CC1)c1ccccc1S2 [Metopimazine free base, 1-(3-(2-(methylsulfonyl)-10H-phenothiazin-10-yl)propyl)piperidine-4-carboxamide, reference compound] | 23 | 58 | –
2 | 34.25 | 1.50 | – | 0.50 | – | no notable change in AUC | approximately 15% | 93.63 | 84.07 | 63.82 | 110.75 | 86.00* % | 101.93* % | not statistical difference | slightly but significantly lower | CS(=O)(=O)c1ccc2c(c1)N(CCCN1CCC(C(N)=O)CC1)c1ccccc1S2 [Metopimazine mesylate Crystal Form A, 1-(3-(2-(methylsulfonyl)-10H-phenothiazin-10-yl)propyl)piperidine-4-carboxamide methanesulfonic acid] | – | – | statistically significantly lower variance
